Data on 14 molecules can be found in US11952344B2, “Heterocyclic compound and use thereof” (TAKEDA PHARMACEUTICAL COMPANY LIMITED, priority 2019, dated 2024).

The target of assay [1] is T1, NMDA receptor containing the NR2B subunit (Homo sapiens, UniProt Q13224). To be noted: continuous intravenous administration; cited from earlier work.
Assay [2] deals with T2, NMDA receptor containing the NR2B subunit (Rattus norvegicus, UniProt Q00960). To be noted: rodents; cited from earlier work.
Assay [3] addresses T2, NMDA receptor containing the NR2B subunit. The assay can be described thus: [3H]MK-801 binding test in vivo (hippocampus). Further details: from tissue; host or cells: rat hippocampus (Sprague Dawley); species or system Sprague Dawley rats. To be noted: po, [3H]MK-801 binding inhibitory rate, 1 mg/kg p.o., vehicle = 100% binding, excess MK-801 maleate = 0%. As to the method: Experimental Example 2 [^3H]MK-801 Binding Test In Vivo
In order to confirm “functional antagonistic action on an NMDA receptor containing the NR2B subunit in vivo” which the compound of the present invention has, binding test was performed using tritium-labeled form of MK-801 ((5R,10S)-5-methyl-10,11-dihydro-5H-5,10-epiminodibenzo[a,d][7]annulene) ([^3H]MK-801), which is a compound capable of binding to the opening site of the NMDA receptor.
The example compound (1 mg/kg/2 mL, 0.5% MC water) or vehicle ([…], 0.5% MC water) was orally administered (p.o.) to Sprague Dawley rats (body weight 180-260 g). After a certain time (around after time-to maximum blood concentration), [^3H]MK-801 (20 μCi/kg/mL, Muromachi Kikai) was intravenously administered. After 10 min, the rats were euthanized by decapitation, and subjected to craniotomy, and the hippocampus was collected. The collected hippocampus was homogenized in 30 volumes (30 mL per 1 g tissue) ice-cooled 20 mM Hepes (pH7.5, Hampton Research) using a homogenizer (T10 basic Ultra-Turrax) for […]. […] The filter was washed four times with ice-cooled saline (5 mL, Otsuka Pharmaceutical), put into a scintillation vial, and then 10 mL of liquid scintillator A (FUJIFILM Wako Pure Chemical Corporation) was added thereto, and the residual radioactivity was counted using liquid scintillation counter (ALOKA LSC-6100). Separately, the residual radioactivity in 100 μL of the homogenate before the filtration was counted in the same way. The value of [the residual radioactivity in the filter/the residual radioactivity in the 100 μL of the homogenate] was calculated as a [^3H]MK-801 binding rate to the NMDA receptor expressing in each individual hippocampus tissue. […] The difference between the percentage of [^3H]MK-801 binding rate in the group orally administered with the example compound and that in the vehicle control group (100%) was analyzed as [^3H]MK-801 binding inhibitory rate by the example compound.

In assay [4] the target is T3, Human NMDA (NR1/NR2B) Receptor (Homo sapiens, UniProt Q13224).
T3 construct: host or cells: HEK293
Kind of assay: NR2B Ca2+ influx assay. Format: cell-based. The conditions noted are these: 10 μM compound; HEK293 cells expressing GRIN1 and GRIN2B; glutamic acid/glycine-induced Ca2+ influx, Fluo-4 fluorescence; read-out: inhibitory rate (10 μM compound concentration). A digest of the protocol: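 HEK293 cells stably expressing human GRIN1/GRIN2B were tetracycline-induced for 2 h, loaded with Fluo-4AM and preincubated 15 min at room temperature with compound at 10 μM final. Ca2+ influx was triggered by glutamic acid and glycine and fluorescence (ex 480/em 540 nm) was recorded for 5 min. Inhibition was computed from cumulative fluorescence.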

Assay [5] deals with T1, NMDA receptor containing the NR2B subunit. The conditions noted are these: in vivo; cited from earlier work.
The subject of assay [6] is NMDA receptor. The conditions noted are these: single intravenous administration; major depression and bipolar disorder; cited from earlier work.
Assay [7] concerns NMDA receptor. The conditions noted are these: in vivo; cited from earlier work.

T2 sequence (Q00960 27-1482, other chains not shown): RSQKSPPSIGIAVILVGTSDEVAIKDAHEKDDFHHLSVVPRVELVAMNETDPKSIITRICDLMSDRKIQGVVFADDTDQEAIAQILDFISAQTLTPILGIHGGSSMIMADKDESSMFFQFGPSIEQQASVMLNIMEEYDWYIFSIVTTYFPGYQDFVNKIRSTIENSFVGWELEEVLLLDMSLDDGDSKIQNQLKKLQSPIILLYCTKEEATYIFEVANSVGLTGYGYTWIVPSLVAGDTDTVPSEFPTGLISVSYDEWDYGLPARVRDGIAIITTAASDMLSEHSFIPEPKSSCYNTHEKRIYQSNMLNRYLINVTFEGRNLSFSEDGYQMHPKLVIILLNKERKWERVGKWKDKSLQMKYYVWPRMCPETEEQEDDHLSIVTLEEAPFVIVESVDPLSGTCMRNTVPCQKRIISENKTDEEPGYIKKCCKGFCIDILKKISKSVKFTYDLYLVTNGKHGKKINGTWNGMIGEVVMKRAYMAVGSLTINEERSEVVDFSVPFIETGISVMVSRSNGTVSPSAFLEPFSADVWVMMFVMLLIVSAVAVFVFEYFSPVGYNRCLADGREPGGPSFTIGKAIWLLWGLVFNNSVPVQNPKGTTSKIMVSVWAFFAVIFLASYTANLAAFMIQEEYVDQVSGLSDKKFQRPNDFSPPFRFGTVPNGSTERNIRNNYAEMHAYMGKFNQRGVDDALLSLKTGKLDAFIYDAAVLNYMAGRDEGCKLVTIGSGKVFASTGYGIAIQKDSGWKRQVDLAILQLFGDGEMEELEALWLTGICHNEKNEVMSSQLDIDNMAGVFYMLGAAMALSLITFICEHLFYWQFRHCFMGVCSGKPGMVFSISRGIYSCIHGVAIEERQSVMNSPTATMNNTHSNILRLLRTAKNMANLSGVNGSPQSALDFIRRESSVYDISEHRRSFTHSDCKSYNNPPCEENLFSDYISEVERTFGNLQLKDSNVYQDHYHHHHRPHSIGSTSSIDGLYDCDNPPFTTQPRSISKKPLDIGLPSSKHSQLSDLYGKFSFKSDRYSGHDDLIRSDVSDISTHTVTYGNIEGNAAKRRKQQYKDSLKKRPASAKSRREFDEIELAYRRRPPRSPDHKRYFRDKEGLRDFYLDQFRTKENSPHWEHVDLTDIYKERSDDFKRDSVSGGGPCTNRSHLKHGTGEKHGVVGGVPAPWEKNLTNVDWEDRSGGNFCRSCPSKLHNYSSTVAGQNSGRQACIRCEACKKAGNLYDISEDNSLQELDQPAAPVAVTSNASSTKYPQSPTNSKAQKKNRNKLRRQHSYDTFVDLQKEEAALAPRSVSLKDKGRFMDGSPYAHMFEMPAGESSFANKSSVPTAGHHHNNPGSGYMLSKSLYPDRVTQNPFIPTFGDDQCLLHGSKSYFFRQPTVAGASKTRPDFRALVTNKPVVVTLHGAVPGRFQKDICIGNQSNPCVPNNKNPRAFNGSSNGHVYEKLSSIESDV
T3 sequence (Q13224 27-1484, other chains not shown): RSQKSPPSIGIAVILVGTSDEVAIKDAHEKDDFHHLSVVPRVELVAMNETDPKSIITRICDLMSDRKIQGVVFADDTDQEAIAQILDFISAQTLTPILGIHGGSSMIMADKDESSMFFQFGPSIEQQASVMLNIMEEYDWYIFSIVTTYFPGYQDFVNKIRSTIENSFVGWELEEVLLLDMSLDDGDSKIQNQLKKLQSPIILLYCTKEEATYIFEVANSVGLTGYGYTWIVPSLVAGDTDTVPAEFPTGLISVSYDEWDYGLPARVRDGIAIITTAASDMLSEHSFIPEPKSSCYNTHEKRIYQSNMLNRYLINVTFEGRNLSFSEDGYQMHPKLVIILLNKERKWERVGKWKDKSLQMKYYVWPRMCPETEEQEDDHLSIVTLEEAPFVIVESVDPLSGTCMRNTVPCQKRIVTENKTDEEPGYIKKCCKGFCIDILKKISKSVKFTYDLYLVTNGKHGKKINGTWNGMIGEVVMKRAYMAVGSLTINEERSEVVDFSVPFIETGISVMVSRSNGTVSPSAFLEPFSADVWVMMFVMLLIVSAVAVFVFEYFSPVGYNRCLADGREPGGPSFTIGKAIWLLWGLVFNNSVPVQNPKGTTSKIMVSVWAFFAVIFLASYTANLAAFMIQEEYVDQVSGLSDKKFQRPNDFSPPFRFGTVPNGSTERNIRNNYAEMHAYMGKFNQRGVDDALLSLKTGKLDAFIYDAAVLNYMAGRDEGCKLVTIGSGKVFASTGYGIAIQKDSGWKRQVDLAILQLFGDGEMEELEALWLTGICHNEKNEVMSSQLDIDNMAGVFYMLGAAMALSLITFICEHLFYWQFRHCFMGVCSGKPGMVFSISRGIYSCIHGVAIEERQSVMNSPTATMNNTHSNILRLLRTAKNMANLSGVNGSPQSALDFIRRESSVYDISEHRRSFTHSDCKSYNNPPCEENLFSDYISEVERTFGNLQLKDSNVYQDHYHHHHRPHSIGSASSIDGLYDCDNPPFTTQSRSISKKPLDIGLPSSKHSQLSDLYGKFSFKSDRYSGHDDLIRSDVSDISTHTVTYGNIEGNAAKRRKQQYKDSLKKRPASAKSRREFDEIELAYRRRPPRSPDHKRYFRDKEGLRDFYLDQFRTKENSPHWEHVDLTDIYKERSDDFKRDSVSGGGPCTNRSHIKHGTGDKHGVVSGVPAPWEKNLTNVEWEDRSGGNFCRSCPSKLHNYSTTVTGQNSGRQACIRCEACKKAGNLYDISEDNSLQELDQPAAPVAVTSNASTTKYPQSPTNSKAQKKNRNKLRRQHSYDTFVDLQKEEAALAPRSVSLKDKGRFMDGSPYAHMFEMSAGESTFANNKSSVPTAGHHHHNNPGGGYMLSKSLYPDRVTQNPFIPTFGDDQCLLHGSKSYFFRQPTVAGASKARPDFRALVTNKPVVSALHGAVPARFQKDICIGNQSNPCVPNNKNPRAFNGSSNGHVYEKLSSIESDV
T1 sequence (Q13224 27-1484, other chains not shown): as above

On to `C[C@@H]([C@@H](O)c1ccc(O)cc1)N1CCC(O)(c2ccccc2)CC1` [CP-101, 606], for which the “improvement of treatment resistant-depression symptom” value in assay [1] is “significantly improves treatment resistant-depression symptom”. Besides, the “number of occurrence and depth of cortical spreading depression” value in assay [2] is “suppress the number of occurrence and the depth of cortical spreading depression”.

As to `COc1ncncc1CNC(=O)c1cnc(OC(F)F)c(F)c1` [Example 12, 6-(difluoromethoxy)-5-fluoro-N-[(4-methoxypyrimidin-5-yl)methyl]pyridine-3-carboxamide], the inhibition at 1 mg/kg in assay [3] was 23%. Besides, the inhibition at 10 µM in assay [4] was 92%.

`COc1cncc(CNC(=O)c2cnc(OC(F)F)c(F)c2)c1` [Example 42, 6-(difluoromethoxy)-5-fluoro-N-[(5-methoxypyridin-3-yl)methyl]pyridine-3-carboxamide] gave an inhibition at 1 mg/kg in assay [3] of 14%. Also, the inhibition at 10 µM in assay [4] worked out at 94%.

In assay [3], `COc1ncncc1CNC(=O)c1cc(F)c(OC(F)F)c(F)c1` [Example 63, 4-(difluoromethoxy)-3,5-difluoro-N-[(4-methoxypyrimidin-5-yl)methyl]benzamide] registered an inhibition at 1 mg/kg of 10%. Moreover, in assay [4], the inhibition at 10 µM stood at 90%.

As to `Cc1ccncc1CNC(=O)c1cnc(C2CC2(F)F)c(F)c1` (stereo not drawn) [Example 101, 6-(2,2-difluorocyclopropyl)-5-fluoro-N-[(4-methylpyridin-3-yl)methyl]pyridine-3-carboxamide], the inhibition at 10 µM in assay [4] was found to be 90%.

In the case of `Cc1ccncc1CNC(=O)c1cnc(C2CC2(F)F)c(Cl)c1` (stereo not drawn) [Example 102, 5-chloro-6-(2,2-difluorocyclopropyl)-N-[(4-methylpyridin-3-yl)methyl]pyridine-3-carboxamide], the inhibition at 10 µM in assay [4] came to 93%.

Consider `Cc1c(F)cncc1CNC(=O)c1cnc(C2CC2(F)F)c(F)c1` (stereo not drawn) [Example 103, 6-(2,2-difluorocyclopropyl)-5-fluoro-N-[(5-fluoro-4-methylpyridin-3-yl)methyl]pyridine-3-carboxamide], for which the inhibition at 10 µM in assay [4] amounted to 92%.

As to `Cc1c(F)cncc1CNC(=O)c1cnc(C2CC2(F)F)c(Cl)c1` (stereo not drawn) [Example 104, 5-chloro-6-(2,2-difluorocyclopropyl)-N-[(5-fluoro-4-methylpyridin-3-yl)methyl]pyridine-3-carboxamide], the inhibition at 10 µM in assay [4] was found to be 95%.

`O=C(NCc1cnccc1OC(F)F)c1cnc(OC(F)F)c(Cl)c1` [Example 111, 5-chloro-6-(difluoromethoxy)-N-[(4-(difluoromethoxy)pyridin-3-yl)methyl]pyridine-3-carboxamide]: in assay [4], the inhibition at 10 µM worked out at 94%.

On to `O=C(NCc1cnccc1OC(F)F)c1ccc(OC(F)(F)F)c(F)c1` [Example 112, N-[(4-(difluoromethoxy)-pyridin-3-yl)methyl]-3-fluoro-4-(trifluoromethoxy)-benzamide], for which, in assay [4], the inhibition at 10 µM was determined as 96%.

In the case of `CC(C(O)c1ccc(O)cc1)N1CCC(Cc2ccccc2)CC1` (stereo not drawn) [Ifenprodil], the pain sense threshold entry in assay [5] is listed as “the pain sense threshold increases”.

For the molecule `C[C@@H](CN1CCC(Cc2ccccc2)CC1)[C@@H](O)c1ccc(O)cc1` [Ro25-6981], the “number of occurrence and depth of cortical spreading depression” value in assay [2] was “suppress the number of occurrence and the depth of cortical spreading depression”.

Take `CNC1(c2ccccc2Cl)CCCCC1=O` (stereo not drawn) [ketamine]: the “improvement of depression symptom” value in the assay with NMDA receptor [6] was “improves depression symptom accompanying major depression and bipolar disorder rapidly and in a sustained manner”.

Turning to `CC12CC3CC(C)(C1)CC(N)(C3)C2` [memantine], the “improvement of peripheral symptoms of dementia” value in the assay with NMDA receptor [7] is “partially improves peripheral symptoms of dementia”.
